# According to US20250263437A1, “POLYPEPTIDE FOR REPAIRING SKIN WOUND OR MUCOSAL INJURY, AND APPLICATION THEREOF” (Sichuan Gooddoctor Panxi Pharmaceutical Co., Ltd., priority 2021, published 2025):
# “Also recorded” adds a separate entry of the source. Where no end group is shown, it is not given here.
# Experiments:
# [1] = system: ethanol-induced gastric ulcer model in mice; assay: Anti-ulcer effect on ethanol-induced gastric ulcer model in mice; type: in vivo; details: single administration; ulcer inhibition rate of test compound / ulcer inhibition rate of Compound 1
# Procedure: Experimental animals: Six-week old C57BL/6JGPt male mice, weighing about 20 g/mouse, were selected, with 10 mice in each group, from GemPharmatech (Chengdu) Co., Ltd., animal license number: SCXK (Chuan) 2020-034. After the experimental animals were divided into groups, they were dosed according to Table 5 one day before the experiment. Among the groups, the model group was given 200 μl of pure water, and the other dose groups were given 200 μl of drug solution. After that, all the animals were fasted for 24 h with free access to water. The next day, 1 h after administration, the mice in each group were given 9 μl/g of absolute ethanol by oral gavage for modeling. After 1 h, the animals were sacrificed by cervical dislocation, the gastric cardia was ligated, the pylorus was occluded, and the whole stomach was removed. 1 mL of 1% formaldehyde solution was injected into the gastric lumen via the glandular stomach, the cardia was ligated, and the stomach was taken out and immediately immersed in 1% formaldehyde solution. After soaking for 30 min, the stomach tissue was taken out and cut open along the greater curvature. The content of the stomach was rinsed off with normal saline, the injury of the gastric mucosa in the mice were observed and measured after being laid flat, and the ulcer index and ulcer inhibition rate were calculated; panoramic photos of the stomach were taken; and finally, the gastric tissue sample was immersed in formalin and fixed. Calculation method for ulcer index: If the length of cord-like injury was greater than 1 mm, the length thereof was measured, with 1 point per millimeter; if the width thereof was greater than 1 mm, the score thereof was doubled according to the number of millimeters of the width; and if the length was less than 1 mm, a score of 0.5 was given, and the scores were added up to obtain the ulcer index of the animal. Method of data statistics: the ulcer index was expressed as mean±standard deviation; the ulcer inhibition rate was calculated by using the median value and mean value of the ulcer index in each dosage group and simulation group; and the data were statistically analyzed by means of Excel, and the difference data of the gastric ulcer index were statistically analyzed by means of independent sample T test.
# RSC96 cells = assay: Proliferation of RSC96 cells (CCK-8); type: cell-based; details: 0.2, 0.4 and 0.8 ug/ml; 48 h; 0% serum
# Procedure: Glial cells (RSC96 cells) were adjusted to a concentration of 1.0×10^5 to 5.0×10^5/mL for passaging and cultured at 37° C. and 5% CO2 for 24-36 h for biological activity detection. The cells were digested by trypsin, collected, prepared to a concentration of 5×10^4/mL with a serum-free medium, inoculated into a 96-well cell culture plate, with 100 μL per well, i.e., 5000 cells/well, and cultured overnight at 37° C. and 5% CO2. The polypeptide compound of the present invention was prepared to test concentrations (0.2 ug/ml, 0.4 ug/ml, and 0.8 ug/ml) with 0% serum culture medium as experimental groups, and an equal amount of 0% serum drug-free culture medium was added to the control group. They were added to 4 duplicate wells, and the resultants were incubated at 37° C. and 5% CO2 for 48 h. Detection of the proliferation of cells using CCK-8: the old culture medium was removed, and a serum-free medium containing 10% CCK-8 was added to each well. After incubation in an incubator for 2 h, the absorbance at 450 nm was measured by a microplate reader.
# FGFR1 = FGFR1 (Homo sapiens, UniProt P11362); assay: FGFR receptor binding assay: ultrafiltration/mass spectrometry affinity screening to FGFR1 protein target; details: ratio of lower-layer to upper-layer compound MS signal intensity; the greater the ratio, the stronger the affinity
# Procedure: The affinity of the polypeptide compound prepared by the present invention to FGFR1 was tested by using a control FGFR1 allosteric inhibitor (product number SSR128129E from Sigma) as a positive compound control.
# Screening for the affinity to FGFR1 was as follows: FGFR1 solutions with an appropriate concentration were taken, the positive compound SSR128129E (Sigma) at an appropriate concentration and sample solutions of the inventive polypeptide compounds, as freeze-dried powders, dissolved in protein buffers were then respectively added. After incubation at room temperature for 50 min, ultrafiltration and screening were carried out to obtain various treated solutions. An appropriate volume of acetonitrile was added to each treated solution to precipitate a protein, the solution was then centrifuged, and the supernatant was taken and analyzed by mass spectrometry.
# Affinity screening conditions: One-dimensional liquid-phase conditions were: chromatographic column; PolyLC chromatographic column, mobile phase A: KH2PO4, NaCl, pH 7.5, mobile phase B: acetonitrile, column temperature: 8° C., flow rate: 1 mL/min, and injection volume: appropriate; and two-dimensional liquid-phase conditions were: chromatographic column: BONUS RRHD, mobile phase A: 0.1% formic acid aqueous solution, mobile phase B: 0.1% formic acid in acetonitrile, column temperature: 60° C., flow rate: 0.3 mL/min, and injection volume: 40 uL. Gradient elution was used, i.e., 98% A (0-1 min), 98-10% A (1-6 min), 10% A (6-7.5 min), 10-98% A (7.5-8 min), and 98% A (8-9.5 min). Mass spectrometry conditions: Agilent 6530 Q-Tof, ESI ion source, voltage 3.5 KV, mass-to-charge ratio scanning range m/z=200-3000, acquisition mode: positive ion scanning, ion source temperature: 350° C., solvent removal temperature: 300° C., and nitrogen flow rate: 8 L/min.
# HaCaT cells = assay: Proliferation of HaCaT cells (CCK8); type: cell-based, human; details: 0.2-0.8 μg/mL; 24 h, 48 h and 72 h; 1% serum
# Procedure: Experimental method: Immortalized human keratinocytes (HaCaT cells) was adjusted to a concentration of 1.0×10^5 to 5.0×10^5/mL for passaging, and they were cultured at 37° C. and 5% CO2 for 24-36 h for biological activity detection. The cells were digested with 0.25% trypsin for 5 min, 1640 whole blood culture medium, the volume of which was not less than 1 time of the volume of the trypsin, was added to stop digestion, a cell suspension was collected, centrifuged at 1000 RPM for 3 min, the supernatant was discarded, 2 mL of 1640 whole blood culture medium was added to suspend the cells, 20 μL of the cell suspension was taken and stained with AOPI, the concentration of cells in the suspension was then detected by a cell counter, the suspension was prepared to a concentration of 5×10^4/mL with 1640 culture medium containing serum at a concentration of 10% and inoculated into a 96-well cell culture plate, with 100 μL per well, i.e., 5000 cells/well, and the plate was cultured at 37° C. and 5% CO2 overnight.
# After 24 h, the original culture medium was discarded, and 100 μL of polypeptide compound solutions with different concentrations prepared with 1640 culture medium containing serum at a concentration of 1% were added, such that the final concentrations of the polypeptide compounds to be tested were 0.2, 0.4 and 0.8 ug/mL, respectively. In addition, an EGF control group was prepared by adding 100 μL of a recombinant human epidermal growth factor (EGF) solution prepared with 1640 culture medium containing serum at a concentration of 1%, with the final concentration being 100 ng/ml. In the model control group, an equal volume of 1640 culture medium containing serum at a concentration of 1% was added. After culturing at 37° C. and 5% CO2 for 24 h, 48 h and 72 h, the proliferation of the HaCaT cell line was detected by means of CCK8 kit.
# HMEC-1 cells = assay: Proliferation of HMEC-1 cells (CCK-8); type: cell-based, Human; details: 0.05, 0.2 and 0.8 ug/mL; 48 h; 0% serum
# Procedure: Human microvascular endothelial cells (HMEC-1 cells) were cultured in 10% serum culture medium at 37° C. and 5% CO2, the medium was replaced every 1-2 d, and the cell concentration was controlled to be 4×10^6 cells/mL for passage. Cells were collected, prepared to […] with complete culture medium, inoculated into a 96-well cell culture plate, with 100 μL per well, i.e., 5000 cells/well, and cultured at 37° C. and 5% CO2 until the cells adhered to the wall. The polypeptide compound of the present invention was prepared to test concentrations (0.05 ug/mL, 0.2 ug/mL, and 0.8 ug/mL) with 0% serum culture medium as experimental groups, a positive drug (300 ng/ml) was prepared in the same way and added as a positive control, and an equal amount of 0% serum drug-free culture medium was added to the control group. They were added to 5 duplicate wells, and the resultants were incubated at 37° C. and 5% CO2 for 48 h. Detection of the proliferation of cells using CCK-8: the old culture medium was removed, and a serum-free medium containing 10% CCK-8 was added to each well. After incubation in an incubator for 2 h, the absorbance at 450 nm was measured by a microplate reader.
# FGFR1, sequence (P11362 22-822, species assumed): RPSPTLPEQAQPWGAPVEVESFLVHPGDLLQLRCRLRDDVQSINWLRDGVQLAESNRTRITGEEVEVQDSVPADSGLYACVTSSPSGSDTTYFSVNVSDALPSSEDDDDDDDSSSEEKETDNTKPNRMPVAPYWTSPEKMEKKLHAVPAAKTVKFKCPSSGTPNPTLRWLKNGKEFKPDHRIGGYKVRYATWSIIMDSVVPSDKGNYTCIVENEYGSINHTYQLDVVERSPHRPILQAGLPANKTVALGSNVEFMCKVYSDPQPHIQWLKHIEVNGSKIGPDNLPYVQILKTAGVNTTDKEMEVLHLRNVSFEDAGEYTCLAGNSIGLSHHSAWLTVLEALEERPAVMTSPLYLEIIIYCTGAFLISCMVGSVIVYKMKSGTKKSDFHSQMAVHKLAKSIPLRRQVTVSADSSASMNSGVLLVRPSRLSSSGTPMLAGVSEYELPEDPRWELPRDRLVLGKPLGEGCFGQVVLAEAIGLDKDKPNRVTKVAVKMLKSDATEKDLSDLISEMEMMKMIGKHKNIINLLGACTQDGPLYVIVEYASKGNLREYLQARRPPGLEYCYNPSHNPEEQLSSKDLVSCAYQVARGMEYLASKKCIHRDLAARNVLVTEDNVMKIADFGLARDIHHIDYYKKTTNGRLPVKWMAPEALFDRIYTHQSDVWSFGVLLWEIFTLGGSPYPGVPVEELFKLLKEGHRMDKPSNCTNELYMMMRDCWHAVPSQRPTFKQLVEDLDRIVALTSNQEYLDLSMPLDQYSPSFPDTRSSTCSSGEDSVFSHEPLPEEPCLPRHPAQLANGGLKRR
Cb/Ct range (FGFR1),Sequence,Anti-ulcer activity (mean relative ulcer inhibition rate) [1],effect on proliferation of RSC96 cells (RSC96 cells),effect on proliferation of HaCaT cells (HaCaT cells),effect on proliferation of HMEC-1 cells (HMEC-1 cells)
1.0-3,AARLADELRAE [Compound 65],1.29,proliferation-promoting effect,proliferation-promoting effect,
1.0-3,EINQLELIKQASI [Compound 64],0.61,significant proliferation promoting effects,proliferation-promoting effect,proliferation-promoting effect
1.0-3,VDAAMVLLTR [Compound 72],1.65,,proliferation-promoting effect,significant proliferation promoting effects; also recorded: proliferation-promoting effect
1.0-3,HCLAGLKKDLEDLE [Compound 63],1.99,proliferation-promoting effect,proliferation-promoting effects,

# Second part, the sequence before the results:
Sequence,Cb/Ct range (FGFR1),Anti-ulcer activity (mean relative ulcer inhibition rate) [1],effect on proliferation of RSC96 cells (RSC96 cells),effect on proliferation of HaCaT cells (HaCaT cells),effect on proliferation of HMEC-1 cells (HMEC-1 cells)
VDAAVLMLRT [Compound 73],1.0-3,1.46,proliferation-promoting effect,proliferation-promoting effect,proliferation-promoting effect
KFYSQSTASSSYAYPSHFGPAGFSGSHS [Compound 70],1.0-3,0.39,inhibitory effect,proliferation-promoting effect,
ETLQRKNKE [Compound 66],1.0-3,0.52,significant proliferation promoting effects,proliferation-promoting effect,
VDAAVIEKIE [Compound 71],1.0-3,0.77,,proliferation-promoting effect,proliferation-promoting effect
